Measurements published in the NIST ThermoML archive (doi:10.1016/j.jct.2016.03.026).
Values joined by “and” are separate entries in the source; they are usually repeats but may differ in a detail not shown here. Equal values may be shown once. Numbers after ± are expanded uncertainties.

Test: xn = mol fraction of the nth substance listed
Conditions: Fluid (supercritical or subcritical phases), Frequency=5 MHz, Pulse-echo method

O=C=O [carbon dioxide] + CO
Conditions | speed of sound
298.13 K, 40050 kPa, x1 = 0.7534 | 817.8 ± 1.1 m/s
298.13 K, 44960 kPa, x1 = 0.925 | 802 ± 1.1 m/s
298.13 K, 44980 kPa, x1 = 0.925 | 802.5 ± 1.1 m/s
298.13 K, 45000 kPa, x1 = 0.8502 | 812.9 ± 1.1 m/s
298.13 K, 45000 kPa, x1 = 0.925 | 803.5 ± 1.1 m/s
298.13 K, 45020 kPa, x1 = 0.7534 | 848.9 ± 1.1 m/s
298.13 K, 45020 kPa, x1 = 0.925 | 803 ± 1.1 m/s
298.13 K, 49980 kPa, x1 = 0.925 | 832.4 ± 1.1 m/s and 833.5 ± 1.1 m/s
298.13 K, 49990 kPa, x1 = 0.925 | 832.8 ± 1.1 m/s
298.13 K, 50010 kPa, x1 = 0.925 | 833.6 ± 1.1 m/s
298.13 K, 50070 kPa, x1 = 0.7534 | 878.2 ± 1.2 m/s
298.13 K, 50080 kPa, x1 = 0.8502 | 843 ± 1.1 m/s
298.13 K, 54890 kPa, x1 = 0.7534 | 904.5 ± 1.2 m/s
298.13 K, 54910 kPa, x1 = 0.8502 | 869.9 ± 1.1 m/s
298.13 K, 54940 kPa, x1 = 0.925 | 860.9 ± 1.1 m/s
298.13 K, 54950 kPa, x1 = 0.925 | 860.2 ± 1.1 m/s
298.13 K, 54970 kPa, x1 = 0.925 | 861.2 ± 1.1 m/s
298.13 K, 55000 kPa, x1 = 0.925 | 860.7 ± 1.1 m/s
298.13 K, 59950 kPa, x1 = 0.8502 | 896.4 ± 1.2 m/s
298.13 K, 59970 kPa, x1 = 0.925 | 886.8 ± 1.2 m/s
298.13 K, 60000 kPa, x1 = 0.925 | 887 ± 1.2 m/s
298.13 K, 60010 kPa, x1 = 0.925 | 887.7 ± 1.2 m/s
298.13 K, 60020 kPa, x1 = 0.925 | 887.7 ± 1.2 m/s
298.13 K, 60230 kPa, x1 = 0.7534 | 932.1 ± 1.2 m/s
298.13 K, 64680 kPa, x1 = 0.7534 | 953.8 ± 1.2 m/s
298.13 K, 64950 kPa, x1 = 0.925 | 912 ± 1.2 m/s
298.13 K, 64960 kPa, x1 = 0.925 | 911.8 ± 1.2 m/s
298.13 K, 64990 kPa, x1 = 0.925 | 912.4 ± 1.2 m/s
298.13 K, 65010 kPa, x1 = 0.925 | 911.9 ± 1.2 m/s
298.13 K, 65100 kPa, x1 = 0.8502 | 922 ± 1.2 m/s
298.13 K, 69930 kPa, x1 = 0.8502 | 944.8 ± 1.2 m/s
298.13 K, 69960 kPa, x1 = 0.925 | 935.2 ± 1.2 m/s
298.13 K, 69970 kPa, x1 = 0.925 | 935.8 ± 1.2 m/s
298.13 K, 69980 kPa, x1 = 0.925 | 935.3 ± 1.2 m/s
298.13 K, 70000 kPa, x1 = 0.925 | 936 ± 1.2 m/s
298.13 K, 70030 kPa, x1 = 0.7534 | 978.8 ± 1.3 m/s
298.13 K, 74960 kPa, x1 = 0.925 | 957.7 ± 1.2 m/s
298.13 K, 74970 kPa, x1 = 0.925 | 957.9 ± 1.2 m/s and 958.4 ± 1.2 m/s
298.13 K, 75000 kPa, x1 = 0.925 | 958.5 ± 1.2 m/s
298.13 K, 75120 kPa, x1 = 0.8502 | 968.2 ± 1.3 m/s
298.13 K, 75550 kPa, x1 = 0.7534 | 1003.2 ± 1.3 m/s
298.13 K, 79950 kPa, x1 = 0.925 | 979.9 ± 1.3 m/s
298.13 K, 79970 kPa, x1 = 0.925 | 979.7 ± 1.3 m/s
298.13 K, 79990 kPa, x1 = 0.8502 | 989 ± 1.3 m/s
298.13 K, 79990 kPa, x1 = 0.925 | 979.4 ± 1.3 m/s
298.13 K, 80530 kPa, x1 = 0.7534 | 1024.4 ± 1.3 m/s
298.13 K, 89880 kPa, x1 = 0.8502 | 1029.2 ± 1.3 m/s
298.13 K, 89960 kPa, x1 = 0.925 | 1019.7 ± 1.3 m/s
298.13 K, 89980 kPa, x1 = 0.925 | 1020.4 ± 1.3 m/s
298.13 K, 90000 kPa, x1 = 0.925 | 1020 ± 1.3 m/s and 1020.4 ± 1.3 m/s
298.13 K, 90430 kPa, x1 = 0.7534 | 1064.1 ± 1.4 m/s
298.13 K, 99830 kPa, x1 = 0.7534 | 1098.9 ± 1.4 m/s
298.13 K, 99970 kPa, x1 = 0.925 | 1057.9 ± 1.4 m/s
298.13 K, 99990 kPa, x1 = 0.925 | 1057.5 ± 1.4 m/s
298.13 K, 100010 kPa, x1 = 0.8502 | 1067.3 ± 1.4 m/s
298.13 K, 100010 kPa, x1 = 0.925 | 1057.5 ± 1.4 m/s
298.13 K, 100040 kPa, x1 = 0.925 | 1057.3 ± 1.4 m/s
298.13 K, 109890 kPa, x1 = 0.8502 | 1102.7 ± 1.4 m/s
298.13 K, 109950 kPa, x1 = 0.925 | 1092.7 ± 1.4 m/s
298.13 K, 109980 kPa, x1 = 0.925 | 1093.2 ± 1.4 m/s
298.13 K, 109990 kPa, x1 = 0.925 | 1092.8 ± 1.4 m/s and 1093.2 ± 1.4 m/s
298.13 K, 110320 kPa, x1 = 0.7534 | 1136.1 ± 1.5 m/s
298.13 K, 119500 kPa, x1 = 0.8502 | 1135.1 ± 1.5 m/s
298.13 K, 119930 kPa, x1 = 0.925 | 1126 ± 1.4 m/s
298.13 K, 119960 kPa, x1 = 0.925 | 1126.1 ± 1.4 m/s
298.13 K, 119990 kPa, x1 = 0.925 | 1125.8 ± 1.4 m/s
298.13 K, 120000 kPa, x1 = 0.925 | 1126 ± 1.4 m/s
298.13 K, 120120 kPa, x1 = 0.7534 | 1168.5 ± 1.5 m/s
298.13 K, 129960 kPa, x1 = 0.925 | 1157.1 ± 1.5 m/s
298.13 K, 129970 kPa, x1 = 0.925 | 1157.2 ± 1.5 m/s and 1157.6 ± 1.5 m/s
298.13 K, 130000 kPa, x1 = 0.925 | 1157.5 ± 1.5 m/s
298.13 K, 139110 kPa, x1 = 0.7534 | 1226.8 ± 1.6 m/s
298.13 K, 139980 kPa, x1 = 0.925 | 1186.8 ± 1.5 m/s and 1187.3 ± 1.5 m/s
298.13 K, 139990 kPa, x1 = 0.925 | 1187.1 ± 1.5 m/s
298.13 K, 140030 kPa, x1 = 0.925 | 1187.4 ± 1.5 m/s
298.13 K, 140060 kPa, x1 = 0.8502 | 1198.2 ± 1.5 m/s
298.13 K, 149950 kPa, x1 = 0.925 | 1215.3 ± 1.6 m/s and 1215.7 ± 1.6 m/s
298.13 K, 149960 kPa, x1 = 0.925 | 1215.5 ± 1.6 m/s
298.13 K, 149990 kPa, x1 = 0.925 | 1215.1 ± 1.6 m/s
298.13 K, 159590 kPa, x1 = 0.7534 | 1284.3 ± 1.6 m/s
298.13 K, 159960 kPa, x1 = 0.925 | 1242.8 ± 1.6 m/s
298.13 K, 159970 kPa, x1 = 0.925 | 1242.8 ± 1.6 m/s
298.13 K, 159980 kPa, x1 = 0.925 | 1242.2 ± 1.6 m/s
298.13 K, 159990 kPa, x1 = 0.925 | 1242.6 ± 1.6 m/s
298.13 K, 160550 kPa, x1 = 0.8502 | 1255.2 ± 1.6 m/s
298.13 K, 169970 kPa, x1 = 0.925 | 1268.9 ± 1.6 m/s
298.13 K, 169980 kPa, x1 = 0.925 | 1268.9 ± 1.6 m/s
298.13 K, 169990 kPa, x1 = 0.925 | 1268.1 ± 1.6 m/s
298.13 K, 170010 kPa, x1 = 0.925 | 1268.7 ± 1.6 m/s
298.13 K, 178270 kPa, x1 = 0.8502 | 1301.3 ± 1.7 m/s
298.13 K, 179990 kPa, x1 = 0.925 | 1293.2 ± 1.6 m/s
298.13 K, 180020 kPa, x1 = 0.925 | 1293.8 ± 1.6 m/s and 1294 ± 1.6 m/s
298.13 K, 180060 kPa, x1 = 0.925 | 1294.1 ± 1.6 m/s
298.13 K, 180370 kPa, x1 = 0.7534 | 1338.1 ± 1.7 m/s
298.13 K, 189940 kPa, x1 = 0.925 | 1316.8 ± 1.7 m/s
298.13 K, 189950 kPa, x1 = 0.925 | 1317.9 ± 1.7 m/s
298.13 K, 189970 kPa, x1 = 0.925 | 1317.8 ± 1.7 m/s
298.13 K, 190010 kPa, x1 = 0.925 | 1317.9 ± 1.7 m/s
298.14 K, 44940 kPa, x1 = 0.9803 | 798 ± 1.1 m/s
298.14 K, 50050 kPa, x1 = 0.9803 | 829.6 ± 1.1 m/s
298.14 K, 54980 kPa, x1 = 0.9803 | 857.8 ± 1.1 m/s
298.14 K, 60140 kPa, x1 = 0.9803 | 885.4 ± 1.2 m/s
298.14 K, 64990 kPa, x1 = 0.9803 | 909.9 ± 1.2 m/s
298.14 K, 70210 kPa, x1 = 0.9803 | 935 ± 1.2 m/s
298.14 K, 75300 kPa, x1 = 0.9803 | 958.1 ± 1.2 m/s
298.14 K, 80240 kPa, x1 = 0.9803 | 979.6 ± 1.3 m/s
298.14 K, 89800 kPa, x1 = 0.9803 | 1018.7 ± 1.3 m/s
298.14 K, 100450 kPa, x1 = 0.9803 | 1059.1 ± 1.4 m/s
298.14 K, 109890 kPa, x1 = 0.9803 | 1092.5 ± 1.4 m/s
298.14 K, 120160 kPa, x1 = 0.9803 | 1126.5 ± 1.4 m/s
298.14 K, 130400 kPa, x1 = 0.9803 | 1158.4 ± 1.5 m/s
298.14 K, 139810 kPa, x1 = 0.9803 | 1185.8 ± 1.5 m/s
298.14 K, 150170 kPa, x1 = 0.9803 | 1215.7 ± 1.6 m/s
298.14 K, 160470 kPa, x1 = 0.9803 | 1243.6 ± 1.6 m/s
304.19 K, 24950 kPa, x1 = 0.97 | 621 ± 0.9 m/s
304.19 K, 29960 kPa, x1 = 0.97 | 668.7 ± 1 m/s
304.19 K, 34880 kPa, x1 = 0.97 | 709.6 ± 1 m/s
304.19 K, 39930 kPa, x1 = 0.97 | 747.2 ± 1 m/s
304.19 K, 44970 kPa, x1 = 0.97 | 781.3 ± 1.1 m/s
304.19 K, 50020 kPa, x1 = 0.97 | 812.8 ± 1.1 m/s
304.19 K, 54970 kPa, x1 = 0.97 | 841.5 ± 1.1 m/s
304.19 K, 59970 kPa, x1 = 0.97 | 868.6 ± 1.1 m/s
